Source: patent US20150218141A1, “SUBSTITUTED CARBAMATE COMPOUNDS” (HOFFMANN-LA ROCHE INC, priority 2012, published 2015)
Structures can show the parent of a compound that is named as a salt.

Each compound was assayed against T1, hTRPA1 (Homo sapiens, UniProt O75762) (assay: IC50 determination, dose response calcium flux (FLIPR) assay, ChanTest hTRPA1-CHO stably transfected cell line). Details: CHO-K1 Tet-On hTRPA1 cells, 30' preincubation, agonist cinnamaldehyde final 100 uM.
T1 construct: host or cells: CHO-K1 Tet-On, Clone 20 (Chinese Hamster Ovary cells, inducible expression)
Type: cell-based
Experimental: IC50 Determination of Exemplified Compounds Dose Response Assay: ChanTest hTRPA1-CHO Stably Transfected Cell Line
CHO-K1 Tet-On_HOMSA_TRPA1_Clone—20
Growth Media for CHO-K1 Tet-On_HOMSA_TRPA1_Clone—20 • Ham's F-12 with 10% tetracycline-free FBS • 1× penicillin-streptomycin • 1× glutamax • 0.01 mg/ml Blasticidin • 0.40 mg/ml Zeocin • The cell line doubling rate was ˜15 hours. […] Experiments were run at 24 hours post induction.
Plating Conditions CHOK1/TRPA1 Cells: • Harvested cells with 0.025% trypsin/EDTA. • Resuspended cells in growth media without selection antibiotics. • Measured cell density and diluted to 2.4×10^5 cells/ml in media containing 1 ug/ml Doxycycline Plate 25 ul/well into 384 well black/clear tissue culture-treated plates. • Incubated overnight at 37° C.
Reagents: • Replacement Buffer: Hank's Balanced Salt Solution, 20 mM HEPES along with 0.005% BSA and 2× Probenecid • Dye Loading Buffer: Cal-3 NW Calcium dye was prepared by dissolving the contents of one vial with […] Hank's Balanced Salt Solution containing 20 mM HEPES. • Control compounds for CHOK1/TRPA1 cells: AP-18, stock 10 mM, prepare 3.5× compound dilution in a Compound Buffer (HBSS/20 mM HEPES/0.005% BSA)—final concentration 10 uM.
Preparation of Cinnamaldehyde (Agonist Addition):
• Specific gravity=1.046 gm/cc • 1.32 gm/1.046 gm/cc=1.26 ml of stock • Add 1.74 ml DMSO=3.3 M stock • Working solution 4.5× (final 100 uM in Compound Buffer: HBSS/20 mM HEPES/0.005% BSA)
Compounds dilutions were prepared from 5 or 10 mM stock (100% DMSO): • Adjustments of volumes and concentrations were made at time of titration to reflect desired final assay concentrations. • Compounds were tested at either 20 μM three folds dilution 11 steps out or 30 μM two folds dilution 11 steps out. • 3 μl of diluted compound were transferred into Weidmann 384-well plate in duplicates side-by-side.
Compound plates were resuspended with 100 ul of HBSS/20 mM HEPES/0.005% BSA buffer (Compound Buffer):
Growth media was removed from the cell plates (20 ul) and 20 ul of the Replacement Buffer was added followed by addition of 25 ul of diluted dye. All three steps were performed using a Plate Washer BioTek 407. The plates were then incubated for 30′ at RT.
After incubation, both the cell and compound plates were brought to the FLIPR and 20 ul of the diluted compounds/antagonist/bk were transferred to the cell plates by the FLIPR. Plates were then incubated for 30′ at room temperature. After 30′ incubation, plates were returned to the FLIPR and 20 ul of 4.5× Cinnamaldehyde was added to the cell plates. During the compound addition as well as agonist addition, fluorescence readings were taken simultaneously from all 384 wells of the cell plate every 1.5 seconds. Five readings were taken to establish a stable baseline, then 20 ul of sample was rapidly (30 ul/sec) and simultaneously added to each well of the cell plate. The fluorescence was continuously monitored before, during and after sample/agonist addition for a total elapsed time of 100 seconds (compound addition) and 120 seconds (agonist addition). Responses (increase in peak fluorescence) in each well following agonist addition was determined. The initial fluorescence reading from each well, prior to ligand stimulation, was used a zero baseline value for the data from that well.

T1 sequence (O75762 whole entry): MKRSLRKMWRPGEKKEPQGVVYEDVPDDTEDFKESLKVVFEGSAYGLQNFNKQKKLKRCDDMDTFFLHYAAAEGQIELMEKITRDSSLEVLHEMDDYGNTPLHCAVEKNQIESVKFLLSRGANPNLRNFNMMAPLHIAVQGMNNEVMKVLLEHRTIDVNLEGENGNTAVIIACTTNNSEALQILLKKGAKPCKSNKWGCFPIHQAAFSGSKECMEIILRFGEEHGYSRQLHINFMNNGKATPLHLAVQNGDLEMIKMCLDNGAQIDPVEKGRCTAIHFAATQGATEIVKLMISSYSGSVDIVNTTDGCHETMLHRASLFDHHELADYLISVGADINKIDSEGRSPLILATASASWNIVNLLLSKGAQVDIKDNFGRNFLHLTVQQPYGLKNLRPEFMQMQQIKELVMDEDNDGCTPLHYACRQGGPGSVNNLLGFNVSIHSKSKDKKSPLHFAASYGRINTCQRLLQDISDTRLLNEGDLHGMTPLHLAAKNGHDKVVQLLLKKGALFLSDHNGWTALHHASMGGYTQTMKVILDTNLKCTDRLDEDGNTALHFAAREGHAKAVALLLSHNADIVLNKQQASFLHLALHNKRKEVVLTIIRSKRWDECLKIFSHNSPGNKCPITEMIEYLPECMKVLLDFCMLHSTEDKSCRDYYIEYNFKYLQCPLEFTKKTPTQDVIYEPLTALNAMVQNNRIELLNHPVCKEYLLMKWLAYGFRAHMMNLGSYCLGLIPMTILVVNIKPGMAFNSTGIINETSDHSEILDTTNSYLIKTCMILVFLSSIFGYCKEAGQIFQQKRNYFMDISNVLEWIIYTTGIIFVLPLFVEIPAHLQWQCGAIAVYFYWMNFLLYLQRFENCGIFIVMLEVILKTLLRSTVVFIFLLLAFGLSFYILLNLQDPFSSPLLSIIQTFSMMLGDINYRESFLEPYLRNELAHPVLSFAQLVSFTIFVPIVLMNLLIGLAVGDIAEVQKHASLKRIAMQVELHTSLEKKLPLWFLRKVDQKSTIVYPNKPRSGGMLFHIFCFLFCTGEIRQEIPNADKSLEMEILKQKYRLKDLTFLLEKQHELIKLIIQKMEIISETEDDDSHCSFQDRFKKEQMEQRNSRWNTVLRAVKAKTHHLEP

| IC50 | SMILES |
| --- | --- |
| 6200 nM | O=C(Nc1ccc(Cl)cc1)O[C@H](CN1CCC[C@@H](c2ccccc2)C1)C(F)(F)F [Example 8, (4-Chlorophenyl)-carbamic acid (R)-2,2,2-trifluoro-1-((S)-3-phenylpiperidin-1-ylmethyl)-ethyl ester hydrochloride] |
| 191 nM | O=C(Nc1ccc(Cl)cc1)O[C@@H](CN1CCCC(Oc2ccccc2)C1)C(F)(F)F (stereo partly drawn) [Example 40, (4-Chlorophenyl)-carbamic acid (S)-2,2,2-trifluoro-1-(3-phenoxypiperidin-1-ylmethyl)-ethyl ester hydrochloride] |
| 7700 nM | COc1cccc([C@@H]2CCCN(C[C@H](OC(=O)Nc3ccc(Cl)cc3)C(F)(F)F)C2)c1 [Example 4, (4-Chlorophenyl)-carbamic acid (S)-2,2,2-trifluoro-1-[(S)-3-(3-methoxyphenyl)-piperidin-1-ylmethyl]-ethyl ester hydrochloride] |
| 625 nM | O=C(Nc1ccc(Cl)cc1)OC(CN1CCCC(c2ccccc2)C1)C(F)(F)F (stereo not drawn) [Example 36, (4-Chlorophenyl)-carbamic acid 2,2,2-trifluoro-1-(3-phenylpiperidin-1-ylmethyl)-ethyl ester hydrochloride] |
| 1920 nM | O=C(Nc1ccc(Cl)cc1)O[C@@H](CN1CCCC(c2ccccn2)C1)C(F)(F)F (stereo partly drawn) [Example 53, (4-Chlorophenyl)-carbamic acid (S)-2,2,2-trifluoro-1-(3′,4′,5′,6′-tetrahydro-2′H-[2,3′]bipyridinyl-1′-ylmethyl)-ethyl ester hydrochloride] |
| 4970 nM | COc1ccccc1C1CCCN(CC(OC(=O)Nc2ccc(Cl)cc2)C(F)(F)F)C1 (stereo not drawn) [Example 1, (4-Chlorophenyl)-carbamic acid 2,2,2-trifluoro-1-[3-(2-methoxyphenyl)-piperidin-1-ylmethyl]-ethyl ester] |
| 320 nM | O=C(Nc1ccc(Cl)cc1)O[C@@H](CN1CCCC(c2cccc(F)c2)C1)C(F)(F)F (stereo partly drawn) [Example 41, (4-Chlorophenyl)-carbamic acid (S)-2,2,2-trifluoro-1-[3-(3-fluorophenyl)-piperidin-1-ylmethyl]-ethyl ester hydrochloride] |
| 865 nM | O=C(Nc1ccc(Cl)cc1)O[C@@H](CN1CCCC(C(=O)c2ccccc2)C1)C(F)(F)F (stereo partly drawn) [Example 39, (4-Chlorophenyl)-carbamic acid (S)-1-(3-benzoylpiperidin-1-ylmethyl)-2,2,2-trifluoroethyl ester hydrochloride] |
| 6400 nM | O=C(Nc1ccc(Cl)cc1)O[C@H](CN1CCC[C@H](c2ccccc2)C1)C(F)(F)F [Example 7, (4-Chlorophenyl)-carbamic acid (R)-2,2,2-trifluoro-1-((R)-3-phenylpiperidin-1-ylmethyl)-ethyl ester hydrochloride] |
| 522 nM | O=C(Nc1ccc(Cl)cc1)OC(CN1CCCC(c2ccc(Cl)cc2)C1)C(F)(F)F (stereo not drawn) [Example 37, (4-Chlorophenyl)-carbamic acid 1-[3-(4-chlorophenyl)-piperidin-1-ylmethyl]-2,2,2-trifluoro ethyl ester] |

Second part, the compound before the results:

| SMILES | IC50 |
| --- | --- |
| N#CC1CCCN(CC(OC(=O)Nc2ccc(Cl)cc2)C(F)(F)F)C1 (stereo not drawn) [Example 13, (4-Chlorophenyl)-carbamic acid 1-(3-cyanopiperidin-1-ylmethyl)-2,2,2-trifluoroethyl ester] | 277 nM |
| COc1ccc(CC2CCCN(C[C@H](OC(=O)Nc3ccc(Cl)cc3)C(F)(F)F)C2)cc1 (stereo partly drawn) [Example 20, (4-Chlorophenyl)-carbamic acid 2,2,2-trifluoro-1-[3-(4-methoxybenzyl)-piperidin-1-ylmethyl]-ethyl ester] | 165 nM |
| O=C(C[C@@H](CN1CCC[C@H](c2cccc(C(F)(F)F)c2)C1)C(F)(F)F)Nc1ccc(Cl)cc1 (racemic) [Example 25, Racemic (S)—N-(4-Chlorophenyl)-4,4,4-trifluoro-3-[(R)-3-(3-trifluoromethylphenyl)-piperidin-1-ylmethyl]-butyramide] | 135 nM |
| O=C(Nc1ccc(Cl)cc1)O[C@@H](CN1CCCC(c2cccc(C(F)(F)F)n2)C1)C(F)(F)F (stereo partly drawn) [Example 56, (4-Chlorophenyl)-carbamic acid (S)-2,2,2-trifluoro-1-(6-trifluoromethyl-3′,4′,5′,6′-tetrahydro-2′H-[2,3′]bipyridinyl-1′-ylmethyl)-ethyl ester hydrochloride] | 246 nM |
| N#Cc1ccc(OC2CCCN(C[C@H](OC(=O)Nc3ccc(Cl)cc3)C(F)(F)F)C2)cc1 (stereo partly drawn) [Example 46, (4-Chlorophenyl)-carbamic acid (S)-1-[3-(4-cyanophenoxy)-piperidin-1-ylmethyl]-2,2,2-trifluoroethyl ester hydrochloride] | 411 nM |
| Cc1noc(C2CCCN(C[C@H](OC(=O)Nc3ccc(Cl)cc3)C(F)(F)F)C2)n1 (mixture of isomers) [Example 28, (4-Chlorophenyl)-carbamic acid (S)-2,2,2-trifluoro-1-[3-(3-methyl-[1,2,4]oxadiazol-5-yl)-piperidin-1-ylmethyl]-ethyl ester hydrochloride] | 1850 nM |
| COc1cc(C2CCCN(C[C@H](OC(=O)Nc3ccc(Cl)cc3)C(F)(F)F)C2)ccc1F (stereo partly drawn) [Example 31, (4-Chlorophenyl)-carbamic acid (S)-2,2,2-trifluoro-1-[3-(4-fluoro-3-methoxyphenyl)-piperidin-1-ylmethyl]-ethyl ester hydrochloride] | 168 nM |
| COc1cccc(CC2CCCN(C[C@H](OC(=O)Nc3ccc(Cl)cc3)C(F)(F)F)C2)c1 (stereo partly drawn) [Example 12, (4-Chlorophenyl)-carbamic acid (S)-2,2,2-trifluoro-1-[3-(3-methoxybenzyl)-piperidin-1-ylmethyl]-ethyl ester hydrochloride salt (1:1)] | 550 nM |
| COc1cccc(C2CCCN(C[C@H](OC(=O)Nc3ccc(Br)cc3)C(F)(F)F)C2)c1 (stereo partly drawn) [Example 60, (4-Bromophenyl)-carbamic acid (S)-2,2,2-trifluoro-1-[3-(3-methoxyphenyl)-piperidin-1-ylmethyl]-ethyl ester hydrochloride] | 365 nM |
| O=C(Nc1ccc(Cl)cc1)OC(CN1CCCC(OCc2ccccc2)C1)C(F)(F)F (stereo not drawn) [Example 14, (4-Chlorophenyl)-carbamic acid 1-(3-benzyloxypiperidin-1-ylmethyl)-2,2,2-trifluoroethyl ester] | 137 nM |
| COc1cccc(C2CCCN(C[C@H](OC(=O)Nc3ccc(F)cc3)C(F)(F)F)C2)c1 (stereo partly drawn) [Example 61, (4-Fluorophenyl)-carbamic acid (S)-2,2,2-trifluoro-1-[3-(3-methoxyphenyl)-piperidin-1-ylmethyl]-ethyl ester hydrochloride] | 273 nM |
| COCCCC1CCCN(CC(OC(=O)Nc2ccc(Cl)cc2)C(F)(F)F)C1 (stereo not drawn) [Example 19, (4-Chlorophenyl)-carbamic acid 2,2,2-trifluoro-1-[3-(3-methoxypropyl)-piperidin-1-ylmethyl]-ethyl ester] | 288 nM |
| COc1cc(OC)cc(C2CCCN(C[C@H](OC(=O)Nc3ccc(Cl)cc3)C(F)(F)F)C2)c1 (stereo partly drawn) [Example 21, (4-Chlorophenyl)-carbamic acid (S)-1-[3-(3,5-dimethoxyphenyl)-piperidin-1-ylmethyl]-2,2,2-trifluoroethyl ester] | 203 nM |
| O=C(Nc1ccc(Cl)cc1)O[C@@H](CN1CCCC(COc2ccc(F)cc2)C1)C(F)(F)F (stereo partly drawn) [Example 51, (4-Chlorophenyl)-carbamic acid (S)-2,2,2-trifluoro-1-[3-(4-fluorophenoxymethyl)-piperidin-1-ylmethyl]-ethyl ester hydrochloride] | 178 nM |
